Test results from US10111882B2, “SYK inhibitors” (Gilead Sciences, Inc., priority 2016, dated 2018).
Values joined by “and” are separate entries in the source; they are usually repeats but may differ in a detail not shown here. Equal entries are not always repeated.

Legend:
[1] = test system: patients with previously untreated AML; assay: Phase 1b/2 study (NCT02343939): response (complete remission) to entospletinib monotherapy lead-in followed by daunorubicin/cytarabine induction; type: in vivo, human
From the text: (§1) Patients with residual disease two weeks after chemotherapy received a second induction cycle identical to the first.

[2] = test system: patients with previously untreated AML; assay: Phase 1b/2 study (NCT02343939): platelet counts and platelet transfusions (FIG. 2, FIG. 3); type: in vivo, human; conditions: for mean number of platelet transfusions required per subject: across monotherapy lead-in and induction cycles; for mean number of transfusions required per subject: induction treatment
From the text: as §1

[3] = test system: patients with previously untreated AML; assay: Phase 1b/2 study (NCT02343939): tolerability, dose limiting toxicity and adverse events
From the text: as §1

[4] = test system: patients with previously untreated AML; assay: Phase 1b/2 study (NCT02343939): absolute neutrophil counts / neutrophil recovery (FIG. 1)
From the text: as §1

[5] = clinical; Nijjar J. S., et al., Rheumatology 2013; cited from earlier work

c1cn2cc(-c3ccc4cn[nH]c4c3)nc(Nc3ccc(N4CCOCC4)cc3)c2n1 [entospletinib]
patients requiring a second induction ([1]; 200 mg BID, 3 patients): two required a second induction | patients requiring a second induction ([1]; 400 mg BID, 6 patients): none required a second induction | response after the 14 day entospletinib monotherapy window ([1]; person with 11q23-rearranged AML, prior to chemotherapy): morphologic and cytogenetic CR | platelet transfusions during monotherapy window ([2]; 200 mg dose level): One subject received platelet transfusions | platelet transfusions during monotherapy window ([2]; 400 mg dose level): no transfusions were required | mean number of platelet transfusions required per subject ([2]; 200 mg dose level): 8.7 | mean number of platelet transfusions required per subject ([2]; 400 mg dose level): 4.1 | mean number of platelet transfusions required per subject ([2]; overall (both dose levels)): 5.5 | platelet response during the window period ([2]; another patient with 11q23-rearranged AML, monotherapy window): significant platelet response | mean number of transfusions required per subject ([2]; Cycle 1 (with daunorubicin/cytarabine)): 4.1 | mean number of transfusions required per subject ([2]; Cycle 2 (with daunorubicin/cytarabine)): 5.5 | platelet count ([2]; two week entospletinib monotherapy window): remained stable, or in some cases, improved from baseline | dose limiting toxicity (DLT) ([3]; 200 mg BID po, three patients): no DLT was observed | dose limiting toxicity (DLT) ([3]; 400 mg BID po, 3 additional patients (DL 1 expansion)): none of whom experienced DLT | adverse event possibly related to entospletinib ([3]; 400 mg BID po, one of three patients (documented fungal pneumonia), did not meet DLT criteria): grade 3 pneumonitis | tolerability of single-agent entospletinib ([3]; monotherapy window period (up to 14 days), before chemotherapy): well tolerated | most common non hematologic adverse events ([3]; overall, inclusive of intensive chemotherapy periods (daunorubicin + cytarabine)): febrile neutropenia, nausea, and diarrhea | recovery time from severe neutropenia ([4]; 200 mg dose level, only evaluable subject with severe neutropenia at baseline): 66 days | ANC recovered to during treatment ([4]; 400 mg dose level, all three evaluable subjects under severe neutropenia cutoff of 200/μL ANC at baseline): above 200 /μL | individual time to recovery from severe neutropenia ([4]; 400 mg dose level, individual subjects with severe neutropenia at baseline): 8 days (2×) and 14 days | subjects experiencing severe neutropenia during monotherapy lead-in ([4]; 400 mg dose level, subjects without severe neutropenia at baseline, recovered to above 200/μL by end of first induction cycle): two of the five subjects | median (Q1, Q3) time to recovery from severe neutropenia ([4]; 400 mg dose level, three subjects with severe neutropenia at baseline): 8 (8, 14) days | absolute neutrophil counts (ANC) ([4]; entospletinib monotherapy lead-in period): remained largely stable | severe neutropenia during induction treatment ([4]; five subjects (both dose levels) without severe neutropenia at baseline): none experienced severe neutropenia

COc1cc(Nc2ncc(F)c(Nc3ccc4c(n3)N(COP(=O)(O)O)C(=O)C(C)(C)O4)n2)cc(OC)c1OC [Fostamatinib]
adverse side effects [5]: hypertension, neutropenia and transaminitis
